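Dose response: 5 concentrations. Exposure: 48 h. Format: 96-well plates. Endpoint: linear interpolation; highest concentration if not reached. GI50: concentration for 50% inhibition of growth.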 The source made the active and inactive calls. Rule as the data show it: active = GI50 up to about 1.1 µM and inactive = higher.
Assays:
Experiment in all cases: NCI anticancer screen, dose series, 48 h
[1] = tested on: A498
[2] = tested on: A549
[3] = tested on: BT-549
[4] = tested on: CCRF-CEM
[5] = tested on: HCT-116
[6] = tested on: HOP-62
[7] = tested on: IGROV-1
[8] = tested on: LOX IMVI
[9] = tested on: MDA-N
[10] = tested on: NCI-H23
[11] = tested on: NCI-H522
[12] = tested on: NCI/ADR-RES
[13] = tested on: OVCAR-8
[14] = tested on: SK-MEL-28
[15] = tested on: SN12C
[16] = tested on: SNB-19
[17] = tested on: SNB-75
[18] = tested on: TK-10
[19] = tested on: U-251
[20] = tested on: UO-31

SMILES | GI50 [1] | GI50 [2] | GI50 [3] | GI50 [4] | GI50 [5] | GI50 [6] | GI50 [7] | GI50 [8] | GI50 [9] | GI50 [10] | GI50 [11] | GI50 [12] | GI50 [13] | GI50 [14] | GI50 [15] | GI50 [16] | GI50 [17] | GI50 [18] | GI50 [19] | GI50 [20]
NCCNc1ncnc2ccc(Cl)cc12 | 37.9 µM (inactive) | 93.8 µM (inactive) | > 100 µM (inactive) | > 100 µM (inactive) | 67.8 µM (inactive) | > 100 µM (inactive) | 49.9 µM (inactive) | > 100 µM (inactive) | 99.1 µM (inactive) | > 100 µM (inactive) | 57.7 µM (inactive) | > 100 µM (inactive) | 74.1 µM (inactive) | > 100 µM (inactive) | 88.5 µM (inactive) | > 100 µM (inactive) | 97.5 µM (inactive) | 28.6 µM (inactive) | > 100 µM (inactive) | 97.3 µM (inactive)
COc1ccc(O[C@H](CO)C[C@@H]2COC(C)(C)O2)cc1 | > 100 µM (inactive) | > 100 µM (inactive) | > 100 µM (inactive) | > 100 µM (inactive) | > 100 µM (inactive) | > 100 µM (inactive) | > 100 µM (inactive) | > 100 µM (inactive) | > 100 µM (inactive) | > 100 µM (inactive) | > 100 µM (inactive) | > 100 µM (inactive) | > 100 µM (inactive) | > 100 µM (inactive) | > 100 µM (inactive) | > 100 µM (inactive) | > 100 µM (inactive) | > 100 µM (inactive) | > 100 µM (inactive) | > 100 µM (inactive)
CN1C(=O)C23CC4=CC=CC(O)C4N2C(=O)C1(CO)SS3 (stereo not given) | 0.234 µM (active) | 0.171 µM (active) | 0.291 µM (active) | 0.0205 µM (active) | 0.107 µM (active) | 0.182 µM (active) | 0.145 µM (active) | 0.17 µM (active) | 0.188 µM (active) | 0.167 µM (active) | 0.169 µM (active) | 0.0224 µM (active) | 0.0611 µM (active) | 0.507 µM (active) | 0.0705 µM (active) | 0.553 µM (active) | 0.21 µM (active) | 0.179 µM (active) | 0.153 µM (active) | 0.565 µM (active)
CN1CCN(CCCCN2c3ccccc3Sc3ccc(N=[N+]=[N-])cc32)CC1 | 13.8 µM (inactive) | 12.9 µM (inactive) | 9.77 µM (inactive) | 2.6 µM (inactive) | 3.72 µM (inactive) | 15.2 µM (inactive) | 7.91 µM (inactive) | 2.47 µM (inactive) | 2.88 µM (inactive) | 17.8 µM (inactive) | 5.01 µM (inactive) | 11.7 µM (inactive) | 13.5 µM (inactive) | 1.84 µM (inactive) | 12.2 µM (inactive) | 13.4 µM (inactive) | 4.55 µM (inactive) | 12.7 µM (inactive) | 4.95 µM (inactive) | 7.57 µM (inactive)
Oc1[nH]c(Nc2ccc(F)c(Cl)c2)nc2ncnc1-2 | > 100 µM (inactive) | > 100 µM (inactive) | > 100 µM (inactive) | > 100 µM (inactive) | > 100 µM (inactive) | > 100 µM (inactive) | > 100 µM (inactive) | > 100 µM (inactive) | > 100 µM (inactive) | > 100 µM (inactive) | > 100 µM (inactive) | > 100 µM (inactive) | > 100 µM (inactive) | > 100 µM (inactive) | > 100 µM (inactive) | > 100 µM (inactive) | 25.9 µM (inactive) | > 100 µM (inactive) | 99.1 µM (inactive) | > 100 µM (inactive)

From ChEMBL document CHEMBL1201862, “PubChem BioAssay data set” (2004)
